Laboratory results from article PMC3242598, “Phase I study of BIBF 1120 with docetaxel and prednisone in metastatic chemo-naive hormone-refractory prostate cancer patients” (British Journal of Cancer, 2011).
Where two headings read alike, the source gives them in different places.

Key:
[1] = Plasma pharmacokinetics of docetaxel (HPLC-MS/MS); type: in vivo; settings: human, docetaxel 75 mg m^−2 IV + BIBF 1120 250 mg BID; for half-life: read-out: t1/2, gMean (gCV%) (converted); for Tmax / AUC(0-inf) / Cmax: iv; for Tmax: read-out: tmax, median and range; for AUC(0-inf): read-out: AUC0−∞, gMean (gCV%); for Cmax: read-out: Cmax, gMean (gCV%)
Experimental: Peripheral blood was collected on days 1, 2, 3, 8, and 15 of TCs 1 and 2, and on days 2 and 15 of TCs 3–6 to perform the PK/pharmacodynamic (PD) analysis. Plasma concentrations of BIBF 1120 were determined after the first dose over the time interval 0–24 h on day 2 of TCs 1 and 2 to investigate single-dose PK characteristics of BIBF 1120 on the day after administration of single doses of docetaxel. Levels of BIBF 1120 were also determined on days 8 and 15 of TCs 1 and 2 to investigate steady-state levels.
Plasma concentrations of BIBF 1120 and docetaxel were analysed by a validated method using high-performance liquid chromatography coupled with tandem mass spectrometry (HPLC-MS/MS) in the Department of Drug Metabolism and Pharmacokinetics (Boehringer Ingelheim Pharma GmbH & Co KG, Biberach, Germany). The assay comprises sample clean-up by automated solid-phase extraction in a 96-well plate format. Chromatography was achieved on an analytical C18 reversed phase HPLC column with gradient elution. The substance was detected and quantified by HPLC-MS/MS using electrospray ionisation in the positive ion mode. Docetaxel was analysed by HPLC-MS/MS using paclitaxel as an internal standard. The assay comprises sample clean-up by liquid–liquid extraction and chromatography on an analytical C18 reversed phase HPLC column with isocratic elution. […] The lower limit of quantification for BIBF 1120 and metabolites was 0.5 ng ml^−1 plasma, using a plasma volume of 200 μl. For docetaxel, the lower limit was 2.5 ng ml^−1 plasma, using a plasma volume of 100 μl.
The calculated parameters were plasmatic peak concentrations following the first dose (Cmax), half-life time (t1/2), area under the plasma concentration–time curve (AUCt), apparent clearance after oral administration, and apparent volume of distribution during the terminal phase.

HRPC = settings: cited from earlier work

Structure (SMILES) | half-life ([1]; treatment cycle 2 (n=12)) | Tmax ([1]; treatment cycle 1 (n=12)) | Tmax ([1]; treatment cycle 2 (n=12)) | half-life ([1]; male, treatment cycle 1 (n=12)) | AUC(0-inf) ([1]; male, treatment cycle 1 (n=12)) | Cmax ([1]; male, treatment cycle 1 (n=12)) | AUC(0-inf) ([1]; male, treatment cycle 2 (n=12)) | Cmax ([1]; male, treatment cycle 2 (n=12)) | PSA responses (HRPC; docetaxel monotherapy or with estramustine, phase III, first-line metastatic HRPC, ref Petrylak et al, 2004, Tannock et al) | Median survival (HRPC; docetaxel with corticosteroid in HRPC, ref Petrylak et al, 2004, Tannock et al, Berthold et al, 2008) | PSA response rates (HRPC; HRPC patients, ref Chi et al, 2008, Dror Michaelson et al, 2009, Sonpavde et al, 2010)
CC(=O)O[C@@]12CO[C@@H]1C[C@H](O)[C@@]1(C)C(=O)[C@H](O)C3=C(C)[C@@H](OC(=O)[C@H](O)[C@@H](NC(=O)OC(C)(C)C)c4ccccc4)C[C@@](O)([C@@H](OC(=O)c4ccccc4)[C@H]21)C3(C)C [docetaxel] | 19.4 h | 1.02 h | 1.01 h | 20.2 h | 1860 ng·h/mL | 1510 ng/mL | 2460 ng·h/mL | 1980 ng/mL | 45–50% | < 20 months | –
CCN(CC)CCNC(=O)c1c(C)[nH]c(/C=C2\C(=O)Nc3ccc(F)cc32)c1C [sunitinib] | – | – | – | – | – | – | – | – | – | – | 3.6–12.1%
